Structures are written as SMILES. Marks after values point to notes of the source that are not given here.

Results on 1 compound are retold here after patent publication US20180235917A1, “COMPOSITIONS, METHODS AND KITS FOR TREATMENT OF DIABETES AND/OR […]” (NuSirt Sciences, Inc., priority 2014, published 2018).

One test deals with diet-induced obese mice. Kind of test: Diet-induced obese mice fed resveratrol, HMB, leucine: weight, adiposity, fat oxidation, insulin sensitivity (Example 1). The test is classed as in vivo, c57/BL6 mice. The settings on record: for Weight: 6 weeks on high-fat diet; for Glucose / Insulin: plasma. On the procedure:
Six week old male c57/BL6 mice were fed a high-fat diet with fat increased to 45% of energy (Research Diets D12451) for 6 weeks to induce obesity.
The animals were housed in polypropylene cages at a room temperature of 22±2° C. and regime of 12 h light/dark cycle. The animals had free access to water and their experimental food throughout the experiment. At the of the treatment period (6 weeks) all animals were humanely euthanized, and blood and tissues collected for further experiments.
at the end of the obesity induction period (day 0 of treatment group) and at 2 weeks and 6 weeks of treatment, oxygen consumption and substrate utilization was measured via metabolic chambers using the Comprehensive Lab Animal Monitoring Systems (CLAMS, Columbus Instruments, Columbus, Ohio) in subgroups of each treatment group. Each animal was placed in individual cages without bedding that allow automated, non-invasive data collection. Each cage is an indirect open circuit calorimeter that provides measurement of oxygen consumption, carbon dioxide production, and concurrent measurement of food intake. All mice were acclimatized to the chambers for 24 hours prior to the experiment and maintained under the regular 12:12 light:dark cycle with free access to water and food. All experiments were started in the morning and data were collected for 24 hours. Each chamber was passed with 0.61 of air/min and was sampled for 2 min at 32-minute intervals. Exhaust O2 and CO2 content from each chamber was compared with ambient O2 and CO2 content. Food consumption was measured by electronic scales.
at the end of the treatment period (6 weeks of treatment) subgroups of each treatment diet group (5 animals/group, 35 animals total) were used to measure whole body glucose and palmitate uptake via PET/CT Imaging. To visualize these compounds using microPET imaging, the glucose or palmitate was labeled with fluorine-18 (108 mins half-life) or carbon-11 (20 mins half-life), respectively. Each mouse was fasted for 4 hours, then anesthetized using 1-3% isoflurane delivered by nose cone or in a mouse-sized induction chamber purpose-built for small animal imaging protocols. While under anesthesia the mice were injected iv with <2 mCi of each tracer, then be left for a period of time (minutes to up ˜1 hour) to allow the uptake of the tracer. During the scan, mice were kept warm using a thermostatically controlled heated bed and were treated with ophthalmic ointment prior to scanning Following the live scan the mice were returned to their cage and revived. Mice were monitored constantly during this time. Following live data acquisition the mice were sacrificed by isoflurane overdose and organs harvested for further experiments.

The subject of test [1] is adipocytes (3T3-L1) and myotubes (C2C12). Kind of test: Fatty acid oxidation and dose-response screening, cell type not stated. The test is classed as cell-based, mouse. The settings on record: leucine 0.5 mM, HMB 5 μM, resveratrol 200 nM, myo-inositol 100 nM; cell type not stated.
The next test concerns the target T1, Sirt1 (Mus musculus, UniProt Q923E4).
T1 construct: endogenous in cells; host or cells: differentiated 3T3-L1 adipocytes and C2C12 myotubes (lysates)
T1 sequence (Q923E4 1-737): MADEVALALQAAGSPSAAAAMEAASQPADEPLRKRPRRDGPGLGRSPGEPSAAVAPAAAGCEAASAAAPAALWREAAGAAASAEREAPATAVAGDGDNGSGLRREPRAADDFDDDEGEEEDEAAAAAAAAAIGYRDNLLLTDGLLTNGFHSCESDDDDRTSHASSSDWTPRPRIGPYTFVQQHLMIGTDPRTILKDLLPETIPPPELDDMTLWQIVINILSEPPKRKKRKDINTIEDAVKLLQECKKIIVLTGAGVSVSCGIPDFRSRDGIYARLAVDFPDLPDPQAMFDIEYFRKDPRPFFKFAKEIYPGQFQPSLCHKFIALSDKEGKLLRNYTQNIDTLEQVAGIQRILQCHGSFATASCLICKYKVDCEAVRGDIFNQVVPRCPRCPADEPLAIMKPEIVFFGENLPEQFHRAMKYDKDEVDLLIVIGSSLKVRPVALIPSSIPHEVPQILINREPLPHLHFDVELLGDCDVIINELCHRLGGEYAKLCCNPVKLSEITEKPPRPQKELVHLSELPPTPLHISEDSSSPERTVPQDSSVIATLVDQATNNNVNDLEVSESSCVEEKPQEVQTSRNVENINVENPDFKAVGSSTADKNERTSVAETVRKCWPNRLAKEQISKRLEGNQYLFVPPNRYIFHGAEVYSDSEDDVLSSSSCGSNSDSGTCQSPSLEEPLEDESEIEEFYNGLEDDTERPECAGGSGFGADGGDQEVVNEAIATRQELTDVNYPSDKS
Kind of test: Sirt1 activity (SIRT1 Fluorimetric Drug Discovery Kit) in treated cells. The settings on record: leucine 0.5 mM, HMB 5 μM, resveratrol 200 nM, alone or combined; cell type not stated. It is filed as cell-based. On the procedure: SIRT1 activity was measured by using the SIRT1 Fluorimetric Drug Discovery Kit (BML-AK555, ENZO Life Sciences International, Inc. PA, USA). The assay measures SIRT1 activity by the degree of deacetylation of a standardized substrate containing an acetylated lysine side chain. The substrate utilized is a peptide containing amino acids 379-382 of human p53 (Arg-His-Lys-Lys[Ac]), an established target of SIRT1 activity; SIRT1 activity is directly proportional to the degree of deacetylation of Lys-382. Samples were incubated with peptide substrate (25 μM), and NAD^+ (500 μM) in a phosphate-buffered saline solution at 37° C. on a horizontal shaker for 45 minutes. […] Following 10 minutes incubation at 37° C., fluorescence was read in a plate-reading fluorometer (Synergy HT, BioTek Instruments, Winooski, Vt.) at an excitation wavelength of 360 nm and an emission wavelength of 450 nm. […]
Sirt1 activity was measured by using the Sirt1 Fluorimetric Drug Discovery Kit (BML-AK555, ENZO Life Sciences Inc., Farmingdale, N.Y., USA). […] Sirt1 activity was assessed by the degree of deacetylation of a standardized substrate containing an acetylated lysine side chain. […] Following 10 minutes incubation at 37° C., fluorescence was read in a plate-reading fluorimeter with excitation and emission wavelengths of 360 nm and 450 nm, respectively. […] Sirt1 activity was measured in a modified assay using 5 μl of cell lysate. […]

Consider `Oc1ccc(/C=C/c2cc(O)cc(O)c2)cc1` [Resveratrol, 3,5,4′-Trihydroxy-trans-stilbene], for which the Weight in the test on diet-induced obese mice (High Resveratrol 225 mg/kg diet, or Low Resv 12.5 mg/kg + High HMB 10 g CaHMB/kg diet) is 38.7 ± 1.2^a g. For the same compound, the Weight in the test on diet-induced obese mice (low doses: resveratrol 12.5 mg/kg diet, CaHMB 2 g/kg diet, leucine 2.42% of diet) is given as 40.8 ± 2.5^a g. In addition, in the test on diet-induced obese mice (high doses as E2), the “Fat oxidation (PET palmitate uptake; Muscle SUV)” value was 2.29 ± 0.11^b SUV, the HOMAIR is reported as 0.59 ± 0.26^b, the “Heat Production” value is reported as 0.552 ± 0.015^b and the “Muscle Glucose Uptake (^18F-deoxyglucose SUV)” value is 3.87 ± 0.32^a SUV. For the same compound, in the test with diet-induced obese mice (high doses as E2), the “Visceral Adipose Volume” value is 6031 ± 323^a mm^3, the Weight gain was 22.3 ± 2.4^a g, the Glucose is reported as 5.14 ± 0.75^a mM and the Insulin is 10.1 ± 2.7^a μU/mL. Besides, in the test with diet-induced obese mice (low doses as E1), the “Fat oxidation (PET palmitate uptake; Muscle SUV)” value is on record as 1.51 ± 0.44^a SUV, the HOMAIR was 2.41 ± 0.66^a, the “Heat Production” value is reported as 0.517 ± 0.014^a and the “Muscle Glucose Uptake (^18F-deoxyglucose SUV)” value is listed as 3.63 ± 1.29^a SUV. In the test on diet-induced obese mice (low doses as E1), the “Visceral Adipose Volume” value is given as 6551 ± 575^a mm^3, the Weight gain is 20.9 ± 1.5^a g, the Glucose was 5.14 ± 0.85^a mM and the Insulin is on record as 10.4 ± 1.6^a μU/mL. Also, in test [1], the “increase in fatty acid oxidation” value is “no effect”. In addition, on Sirt1, the “stimulation of Sirt1 activity” value is “no effect”.
